Common to all, as to assay type: cell-based
In one experiment the test system is live SARS-CoV-2 virus.
Experiment [1] relates to GFP-expressing SARS-CoV-1 (Urbani) pseudovirus.
The subject of experiment [2] is pseudotyped SARS-CoV-2 virus.

Entries after “also recorded” stand apart in the source; their conditions may differ.

In the case of “DISGINASVVNIQKEIDRL8EVAKNLXESLIDLQELGK [SEQ ID NO: 16]”, the differential antiviral activity result in the experiment on live SARS-CoV-2 virus is “moderate activity”. With “DISGINASVVNIQKEID8LNEVAKXLNESLIDLQELGK [SEQ ID NO: 14]”, the differential antiviral activity result in the experiment with live SARS-CoV-2 virus is reported as “little to no activity”. On to “DISGINASVVNIQKEI8RLNEVAXNLNESLIDLQELGK [SEQ ID NO: 13]”, for which the antiviral activity result in experiment [1] is “consistent antiviral activity”. Also, the antiviral activity entry in experiment [2] is on record as “consistent antiviral activity”. For the same substance, in the experiment on live SARS-CoV-2 virus, the antiviral activity result is reported as “consistent antiviral activity”; the “antiviral activity, i, i+7 staple scan” value is given as “potent anti-viral activity; also recorded: among the most potent antiviral activity; also recorded: uniquely potent”; the differential antiviral activity result is reported as “moderate activity”. Turning to “DISGINASVVNIQKEIDR8NEVAKNXNESLIDLQELGK [SEQ ID NO: 15]”, in the experiment on live SARS-CoV-2 virus, the differential antiviral activity result is “little to no activity”.

“DISGINASVVNIQK8IDRLNEXAKNLNESLIDLQELGK [SEQ ID NO: 11]”: the differential antiviral activity entry with live SARS-CoV-2 virus is reported as “little to no activity”.
